Format in all cases: functional
The test system of assay [1] is Rattus norvegicus. Nature of the assay: Anti-inflammatory activity in Rattus norvegicus Wistar (rat) assessed as inhibition of carrageenan-induced paw edema at 20 mg/kg, ip administered 30 min post carrageenan-challenge measured after 3 hr relative to control. As to conditions: route intraperitoneal. Background: In the carrageenan paw model, swelling and tenderness develop within hours.

The test system of assay [2] is Mus musculus. Nature of the assay: Anticonvulsant activity in Mus musculus albino (mouse) assessed as time of onset of PTZ-induced clonic convulsion at 25 mg/kg, po administered 30 min prior to PTZ-challenge (reference value: 61 secs).
Assay [3] deals with Mus musculus. The assay can be described thus: Anticonvulsant activity in Mus musculus albino (mouse) assessed as protection against PTZ-induced clonic convulsion at 25 mg/kg, po administered 30 min prior to PTZ-challenge relative to control.
Assay [4] concerns Rattus norvegicus. The assay can be described thus: Anti-inflammatory activity in Rattus norvegicus Wistar (rat) assessed as inhibition of carrageenan-induced paw edema at 10 mg/kg, ip administered 30 min post carrageenan-challenge measured after 3 hr relative to control. As to conditions: route intraperitoneal.

`O=[N+]([O-])c1cccc(/C=N/C2Oc3ccccc3CC2c2noc(-c3cccc([N+](=O)[O-])c3)n2)c1` (stereo not given): the inhibition in vivo – broadly, the percentage by which the read-out fell short of the control – at 20 mg/kg in the assay on Rattus norvegicus [1] came to 40.9%. In addition, in the assay on Mus musculus [2], the Time came out at 60 s. Further, the Activity with Mus musculus [3] was determined as 100%.

For `Fc1ccc(Br)cc1/C=N/C1Oc2ccccc2CC1c1noc(-c2cc(Br)ccc2F)n1` (stereo not given), the Time with Mus musculus [2] is on record as 128 s. For the same compound, the Activity with Mus musculus [3] stood at 66.6%.

With `COc1cc(/C=N/C2Oc3ccccc3CC2c2noc(-c3ccc(O)c(OC)c3)n2)ccc1O` (stereo not given), the inhibition in vivo at 20 mg/kg in the assay on Rattus norvegicus [1] worked out at 42.5%. Also, in the assay with Mus musculus [2], the Time is given as 80 s. Moreover, in the assay with Mus musculus [3], the Activity is recorded as 66.6%.

With `Brc1ccc(/C=N/C2Oc3ccccc3CC2c2noc(-c3ccc(Br)cc3)n2)cc1` (stereo not given), in the assay with Mus musculus [2], the Time is listed as 104 s. Also, the Activity in the assay with Mus musculus [3] amounted to 100%.

As for `C(=N\C1Oc2ccccc2CC1c1noc(-c2nccs2)n1)/c1nccs1` (stereo not given), the inhibition in vivo at 20 mg/kg with Rattus norvegicus [1] amounted to 17.3%. In addition, the Time with Mus musculus [2] came to 201 s. Besides, in the assay on Mus musculus [3], the Activity worked out at 100%.

In the case of `Fc1ccc(/C=N/C2Oc3ccccc3CC2c2noc(-c3ccc(F)c(Oc4ccccc4)c3)n2)cc1Oc1ccccc1` (stereo not given), the inhibition in vivo at 20 mg/kg with Rattus norvegicus [1] was found to be 37%.

As to `Clc1ccccc1/C=N/C1Oc2ccccc2CC1c1noc(-c2ccccc2Cl)n1` (stereo not given), in the assay with Rattus norvegicus [1], the inhibition in vivo at 20 mg/kg turned out to be 37%. In the assay on Mus musculus [2], the Time came to 226 s. Further, the Activity with Mus musculus [3] is given as 100%.

Turning to `Clc1ccc(/C=N/C2Oc3ccccc3CC2c2noc(-c3ccc(Cl)cc3)n2)cc1` (stereo not given), the inhibition in vivo at 20 mg/kg with Rattus norvegicus [1] was determined as 26.8%. Further, the Time in the assay on Mus musculus [2] was 218 s. Further, in the assay on Mus musculus [3], the Activity is 100%.

In the case of `Oc1ccccc1/C=N/C1Oc2ccccc2CC1c1noc(-c2ccccc2O)n1` (stereo not given), the inhibition in vivo at 20 mg/kg in the assay on Rattus norvegicus [1] was 27.5%. For the same compound, the Time in the assay with Mus musculus [2] came to 325 s. Also, the Activity in the assay on Mus musculus [3] is given as 100%.

As for `COc1ccc(/C=N/C2Oc3ccccc3CC2c2noc(-c3ccc(OC)c(OC)c3)n2)cc1OC` (stereo not given), the inhibition in vivo at 20 mg/kg in the assay with Rattus norvegicus [1] turned out to be 31.5%. Moreover, the Time in the assay with Mus musculus [2] was 158 s. For the same compound, in the assay on Mus musculus [3], the Activity came to 100%.

As to `Fc1ccc(/C=N/C2Oc3ccccc3CC2c2noc(-c3ccc(F)cc3)n2)cc1` (stereo not given), the Time with Mus musculus [2] was determined as 101 s. In addition, in the assay with Mus musculus [3], the Activity is 100%.

For `C(/C=C/c1ccccc1)=N/C1Oc2ccccc2CC1c1noc(/C=C/c2ccccc2)n1` (stereo not given), the inhibition in vivo at 20 mg/kg with Rattus norvegicus [1] was found to be 23.6%.

Regarding `O=C(O)Cc1ccccc1Nc1c(Cl)cccc1Cl` [DICLOFENAC], in the assay with Rattus norvegicus [4], the inhibition in vivo at 10 mg/kg is 80.4%.

The values are drawn from ChEMBL document CHEMBL3045145, “Synthesis, characterization and their anticonvulsant, anti-inflammatory studies of some novel chromeno oxadiazoles” (2013).
